In general, MTD refers to the largest dose that counted as tolerated.

A short description of one data set: Maximum tolerated dose. The data set is classed as in vivo, Balb/c mice. The settings on record: Balb/c, mouse, in vivo; mice, ip; above it the compound becomes hypercalcemic.
A further data set concerns endometriotic lesions. Put plainly: In vivo model of endometriosis (lesion weight). As to conditions: Example 2; each compound at its maximum tolerated level, ip once a day, 5 days a week for two weeks. Further details: species or system Balb/c mice. As for the experimental part: Balb/c donor mice were injected with estrogen (Estradiol AMSA; 3 ug/mouse) and one week later were sacrificed and the uterus was removed, the two horns isolated and reduced to small fragments. The fragments derived from the isolated uterine horns were resuspended in saline with ampicillin (1 mg/ml) and then injected into the peritoneum of two recipient Balb/c mice, previously anesthesized, through a 0.5 cm incision in the abdominal wall. […] Antibiotic (ampicillin 1 mg/ml) was administered on the day of the surgery and on the day after. […] […] Lesions can be identified as translucid isolated or grouped cysts mainly found on the abdominal wall, on the pancreas, and around the uterus. In some cases the lesions are necrotic. The lesions were carefully removed and put on a glass slide to dry for 48 hours, and then were weighed. In other experiments lesions are transferred to a lysis solution and mRNA isolated for gene expression analysis. For immunohistochemical analysis, lesions were frozen immediately after isolation.
Balb/c donor mice were injected with estrogen (Estradiol AMSA; 3 ug/mouse) and one week later were sacrificed and the uterus was removed, the two horns isolated and reduced to small fragments. The fragments derived from the isolated uterine horns were resuspended in saline with ampicillin (1 mg/ml) and then injected into the peritoneum of two recipient Balb/c mice, previously anesthetised, through a 0.5 cm incision in the abdominal wall. Antibiotic (ampicillin 1 mg/ml) was administered on the day of the surgery and on the day after. […] Dosage levels of the test compounds were at the maximum tolerated levels for the compound in question, i.e. 1-alpha-fluoro-25-hydroxy-16,23E-diene-26,27-bishomo-20-epi-cholecalciferol (Compound A) 100 ug/kg, calcitriol (Compound B) 0.3 ug/kg and 1,25-dihydroxy-21-(3-hydroxy-3-methylbutyl)-19-nor-cholecalciferol (Compound C) 3 ug/kg.
[…] Lesions can be identified as translucid isolated or grouped cysts mainly found on the abdominal wall, on the pancreas, and around the uterus. In some cases the lesions are necrotic. The lesions were carefully removed and put on a glass slide to dry for 48 hours, and then were weighed.
Balb/c donor mice were injected with estrogen (Estradiol AMSA; 3 ug/mouse) and one week later were sacrificed and the uterus was removed, the two horns isolated and reduced to small fragments. The fragments derived from the isolated uterine horns were resuspended in saline with ampicillin (1 mg/ml) and then injected into the peritoneum of recipient Balb/c mice, previously anesthetised, through a 0.5 cm incision in the abdominal wall. Antibiotic (ampicillin 1 mg/ml) was administered on the day of the surgery and on the day after. […]
[…] Lesions can be identified as translucid isolated or grouped cysts mainly found on the abdominal wall, on the pancreas, and around the uterus. In some cases the lesions are necrotic. The lesions were carefully removed and put on a glass slide to dry for 48 hours, and then were weighed. At least 10 test animals were used in each group.
Further experiments were performed using Compound A at 100 ug/kg but varying the time at which administration of the vitamin D compound was initiated and the time point at which administration was ceased. Specifically: (i) administration for 1 week prior to injection of the uterine fragments (ii) administration for 2 weeks subsequent to injection of the uterine fragments (iii) administration for 1 week prior and 2 weeks subsequent to injection of the uterine fragments (iv) administration for 2 weeks, initiated two days subsequent to injection of the uterine fragments (v) administration for 2 weeks, initiated two weeks subsequent to injection of the uterine fragments. In these experiments, subjects were sacrificed at the later of two weeks post injection or the end of the treatment period as appropriate.

`C=C1/C(=C\C=C2/CCC[C@]3(C)[C@@H]([C@H](C)CCCC(C)(C)O)CC[C@@H]23)C[C@@H](O)C[C@@H]1O` [Compound B, calcitriol, reference compound]: the MTD in the data set “Maximum tolerated dose” was 0.3 µg/kg. Besides, the “lesion weight, treated versus control (vehicle only), statistical analysis” value in the data set with endometriotic lesions is given as “significant reduction in lesion weight”.
For the compound `CC(C)(O)CCCC(CCCC(C)(C)O)[C@H]1CC[C@H]2/C(=C/C=C3C[C@@H](O)C[C@H](O)C3)CCC[C@]12C` [Compound C, 1,25-dihydroxy-21-(3-hydroxy-3-methylbutyl)-19-nor-cholecalciferol], the MTD in the data set “Maximum tolerated dose” is 3 µg/kg. The “lesion weight, treated versus control (vehicle only), statistical analysis” value with endometriotic lesions is given as “no significant reduction in lesion weight”.

These data come from patent publication US20080280860A1, “Use of Vitamin D Compounds to Treat Endometriosis” (BioXell S.p.A., priority 2005, published 2008).
